Reference: the supplement of paper PMC10307832

Key:
Assay in all cases: relative viability (nuclei count vs DMSO), 5 days (fraction); higher = more cells survive
NCI-H2347 = system: NCI-H2347
Outline: (§1)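 Lung cancer cell lines were pin-tool dosed in 1536-well plates on the day after seeding, with either a lone drug or a fixed anchor-drug dose plus five library-drug doses (not always all listed) in √10 steps. Nuclei were counted on 4× images after 5 days. Relative viability is the ratio of treated-well to vehicle-well nuclei counts, with each value a median of duplicate plates.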

NCI-H650 = system: NCI-H650
Outline: as §1

NCI-H522 = system: NCI-H522
Outline: as §1

NCI-H441 = system: NCI-H441
Outline: as §1

201T = system: 201T
Outline: as §1

NCI-H1395 = system: NCI-H1395
Outline: as §1

NCI-H2087 = system: NCI-H2087
Outline: as §1

NCI-H647 = system: NCI-H647
Outline: as §1

NCI-H596 = system: NCI-H596
Outline: as §1

NCI-H2009 = system: NCI-H2009
Outline: as §1

NCI-H3122 = system: NCI-H3122
Outline: as §1

EMC-BAC-2 = system: EMC-BAC-2
Outline: as §1

NCI-H2023 = system: NCI-H2023
Outline: as §1

NCI-H1666 = system: NCI-H1666
Outline: as §1

LCLC-103H = system: LCLC-103H
Outline: as §1

BEN = system: BEN
Outline: as §1

NCI-H23 = system: NCI-H23
Outline: as §1

HARA = system: HARA
Outline: as §1

NCI-H838 = system: NCI-H838
Outline: as §1

LOU-NH91 = system: LOU-NH91
Outline: as §1

HCC-44 = system: HCC-44
Outline: as §1

NCI-H727 = system: NCI-H727
Outline: as §1

NCI-H2126 = system: NCI-H2126
Outline: as §1

NCI-H1993 = system: NCI-H1993
Outline: as §1

Compound: CC(C)Oc1cc(Nc2nc(N[C@@H](C)c3ccc(F)cn3)ncc2Cl)n[nH]1 [AZ23] + COc1cccc2cc(-c3nc([C@H]4CC[C@H](C(=O)O)CC4)n4ncnc(N)c34)[nH]c12 [OSI-027] (partner 0.5 µM)
- relative viability (NCI-H2347; first compound 0.01 µM): 0.298
- relative viability (NCI-H2347; first compound 0.03162 µM): 0.262
- relative viability (NCI-H2347; first compound 0.3162 µM): 0.389
- relative viability (NCI-H650; first compound 0.01 µM): 0.463
- relative viability (NCI-H650; first compound 0.03162 µM): 0.564
- relative viability (NCI-H650; first compound 0.3162 µM): 0.579
- relative viability (NCI-H522; first compound 0.01 µM): 0.639
- relative viability (NCI-H522; first compound 0.03162 µM): 0.711
- relative viability (NCI-H522; first compound 0.3162 µM): 0.563
- relative viability (NCI-H441; first compound 0.01 µM): 0.707
- relative viability (NCI-H441; first compound 0.03162 µM): 0.729
- relative viability (NCI-H441; first compound 0.3162 µM): 0.566
- relative viability (201T; first compound 0.01 µM): 0.504
- relative viability (201T; first compound 0.03162 µM): 0.827
- relative viability (201T; first compound 0.3162 µM): 0.728
- relative viability (NCI-H1395; first compound 0.03162 µM): 0.708
- relative viability (NCI-H1395; first compound 0.3162 µM): 0.655
- relative viability (NCI-H2087; first compound 0.01 µM): 0.675
- relative viability (NCI-H2087; first compound 0.03162 µM): 0.477
- relative viability (NCI-H2087; first compound 0.3162 µM): 0.459
- relative viability (NCI-H647; first compound 0.01 µM): 0.765
- relative viability (NCI-H647; first compound 0.03162 µM): 0.745
- relative viability (NCI-H647; first compound 0.3162 µM): 0.789
- relative viability (NCI-H596; first compound 0.01 µM): 0.711
- relative viability (NCI-H596; first compound 0.03162 µM): 0.834
- relative viability (NCI-H596; first compound 0.3162 µM): 0.671
- relative viability (NCI-H2009; first compound 0.01 µM): 0.651
- relative viability (NCI-H2009; first compound 0.03162 µM): 0.706
- relative viability (NCI-H2009; first compound 0.3162 µM): 0.765
- relative viability (NCI-H3122; first compound 0.01 µM): 1.12
- relative viability (NCI-H3122; first compound 0.03162 µM): 1.12
- relative viability (NCI-H3122; first compound 0.3162 µM): 1.12
- relative viability (EMC-BAC-2; first compound 0.01 µM): 0.373
- relative viability (EMC-BAC-2; first compound 0.03162 µM): 0.42
- relative viability (EMC-BAC-2; first compound 0.3162 µM): 0.365
- relative viability (NCI-H2023; first compound 0.03162 µM): 0.373
- relative viability (NCI-H2023; first compound 0.3162 µM): 0.437
- relative viability (NCI-H1666; first compound 0.01 µM): 0.847
- relative viability (NCI-H1666; first compound 0.03162 µM): 0.849
- relative viability (NCI-H1666; first compound 0.3162 µM): 0.823
- relative viability (LCLC-103H; first compound 0.01 µM): 0.401
- relative viability (LCLC-103H; first compound 0.03162 µM): 0.505
- relative viability (LCLC-103H; first compound 0.3162 µM): 0.535
- relative viability (BEN; first compound 0.01 µM): 0.312
- relative viability (BEN; first compound 0.03162 µM): 0.287
- relative viability (BEN; first compound 0.3162 µM): 0.268
- relative viability (NCI-H23; first compound 0.03162 µM): 0.58
- relative viability (NCI-H23; first compound 0.3162 µM): 0.599
- relative viability (HARA; first compound 0.03162 µM): 0.686
- relative viability (HARA; first compound 0.3162 µM): 0.415
- relative viability (NCI-H838; first compound 0.01 µM): 0.437
- relative viability (NCI-H838; first compound 0.03162 µM): 0.402
- relative viability (NCI-H838; first compound 0.3162 µM): 0.424
- relative viability (LOU-NH91; first compound 0.01 µM): 0.692
- relative viability (LOU-NH91; first compound 0.03162 µM): 0.753
- relative viability (LOU-NH91; first compound 0.3162 µM): 0.704
- relative viability (HCC-44; first compound 0.01 µM): 0.538
- relative viability (HCC-44; first compound 0.03162 µM): 0.661
- relative viability (HCC-44; first compound 0.3162 µM): 0.375
- relative viability (NCI-H727; first compound 0.01 µM): 0.496
- relative viability (NCI-H727; first compound 0.03162 µM): 0.558
- relative viability (NCI-H727; first compound 0.3162 µM): 0.605
- relative viability (NCI-H2126; first compound 0.01 µM): 0.692
- relative viability (NCI-H2126; first compound 0.03162 µM): 0.735
- relative viability (NCI-H2126; first compound 0.3162 µM): 0.756
- relative viability (NCI-H1993; first compound 0.01 µM): 0.581
- relative viability (NCI-H1993; first compound 0.03162 µM): 0.559
- relative viability (NCI-H1993; first compound 0.3162 µM): 0.529

Compound: CC(C)Oc1cc(Nc2nc(N[C@@H](C)c3ccc(F)cn3)ncc2Cl)n[nH]1 [AZ23] + O=C(CCCCCCC(=O)Nc1ccccc1)NO [Vorinostat] (partner 1 µM)
- relative viability (NCI-H2347; first compound 0.01 µM): 0.446
- relative viability (NCI-H2347; first compound 0.03162 µM): 0.631
- relative viability (NCI-H2347; first compound 0.3162 µM): 0.587
- relative viability (NCI-H650; first compound 0.01 µM): 0.411
- relative viability (NCI-H650; first compound 0.03162 µM): 0.583
- relative viability (NCI-H650; first compound 0.3162 µM): 0.452
- relative viability (NCI-H522; first compound 0.01 µM): 0.939
- relative viability (NCI-H522; first compound 0.03162 µM): 0.954
- relative viability (NCI-H522; first compound 0.3162 µM): 0.934
- relative viability (NCI-H441; first compound 0.01 µM): 0.825
- relative viability (NCI-H441; first compound 0.03162 µM): 0.842
- relative viability (NCI-H441; first compound 0.3162 µM): 0.738
- relative viability (201T; first compound 0.01 µM): 1.05
- relative viability (201T; first compound 0.03162 µM): 1.09
- relative viability (201T; first compound 0.3162 µM): 1.08
- relative viability (NCI-H1395; first compound 0.03162 µM): 0.685
- relative viability (NCI-H1395; first compound 0.3162 µM): 0.799
- relative viability (NCI-H2087; first compound 0.01 µM): 0.969
- relative viability (NCI-H2087; first compound 0.03162 µM): 0.995
- relative viability (NCI-H2087; first compound 0.3162 µM): 0.668
- relative viability (NCI-H647; first compound 0.01 µM): 0.935
- relative viability (NCI-H647; first compound 0.03162 µM): 0.497
- relative viability (NCI-H647; first compound 0.3162 µM): 0.591
- relative viability (NCI-H596; first compound 0.01 µM): 0.523
- relative viability (NCI-H596; first compound 0.03162 µM): 0.622
- relative viability (NCI-H596; first compound 0.3162 µM): 0.582
- relative viability (NCI-H2009; first compound 0.01 µM): 0.704
- relative viability (NCI-H2009; first compound 0.03162 µM): 0.787
- relative viability (NCI-H2009; first compound 0.3162 µM): 0.793
- relative viability (NCI-H3122; first compound 0.01 µM): 1.45
- relative viability (NCI-H3122; first compound 0.03162 µM): 1.05
- relative viability (NCI-H3122; first compound 0.3162 µM): 1.03
- relative viability (EMC-BAC-2; first compound 0.01 µM): 0.333
- relative viability (EMC-BAC-2; first compound 0.03162 µM): 0.511
- relative viability (EMC-BAC-2; first compound 0.3162 µM): 0.505
- relative viability (NCI-H2023; first compound 0.03162 µM): 0.605
- relative viability (NCI-H2023; first compound 0.3162 µM): 0.861
- relative viability (NCI-H1666; first compound 0.01 µM): 0.859
- relative viability (NCI-H1666; first compound 0.03162 µM): 0.977
- relative viability (NCI-H1666; first compound 0.3162 µM): 1.03
- relative viability (LCLC-103H; first compound 0.01 µM): 0.76
- relative viability (LCLC-103H; first compound 0.03162 µM): 0.85
- relative viability (LCLC-103H; first compound 0.3162 µM): 0.769
- relative viability (BEN; first compound 0.01 µM): 0.599
- relative viability (BEN; first compound 0.03162 µM): 0.659
- relative viability (BEN; first compound 0.3162 µM): 0.597
- relative viability (NCI-H23; first compound 0.03162 µM): 0.62
- relative viability (NCI-H23; first compound 0.3162 µM): 0.719
- relative viability (HARA; first compound 0.01 µM): 0.58
- relative viability (HARA; first compound 0.03162 µM): 0.471
- relative viability (HARA; first compound 0.3162 µM): 0.383
- relative viability (NCI-H838; first compound 0.01 µM): 0.768
- relative viability (NCI-H838; first compound 0.03162 µM): 0.687
- relative viability (NCI-H838; first compound 0.3162 µM): 0.626
- relative viability (LOU-NH91; first compound 0.01 µM): 0.864
- relative viability (LOU-NH91; first compound 0.03162 µM): 1.03
- relative viability (LOU-NH91; first compound 0.3162 µM): 0.964
- relative viability (HCC-44; first compound 0.01 µM): 1.14
- relative viability (HCC-44; first compound 0.03162 µM): 1.16
- relative viability (HCC-44; first compound 0.3162 µM): 1.09
- relative viability (NCI-H727; first compound 0.01 µM): 1.07
- relative viability (NCI-H727; first compound 0.03162 µM): 1.13
- relative viability (NCI-H727; first compound 0.3162 µM): 1.37
- relative viability (NCI-H2126; first compound 0.01 µM): 0.776
- relative viability (NCI-H2126; first compound 0.03162 µM): 0.873
- relative viability (NCI-H2126; first compound 0.3162 µM): 0.616
- relative viability (NCI-H1993; first compound 0.01 µM): 0.634
- relative viability (NCI-H1993; first compound 0.03162 µM): 0.654
- relative viability (NCI-H1993; first compound 0.3162 µM): 0.814
